Earlier results, collected in US12686875B2, “Small molecules for increasing precise genome editing efficiency” (Max-Planck-Gesellschaft zur Förderung der Wissenschaften …, priority 2018, dated 2026).

Tests used:
HEK293A cells = conditions: cited from earlier work
rabbit embryos = conditions: dsODN donors, from 4.4% without RS-1; cited from earlier work
hiPSCs = conditions: cited from earlier work
U2OS cells = conditions: dsODN donors, from 1.9% without RS-1; cited from earlier work
[1] = tested on: porcine fetal fibroblasts; conditions: ssODN donors (Wang et al. 2016); cited from earlier work
mouse ESCs = conditions: dsODN donors, from 17.7% without L755507 (Yu et al. 2015); cited from earlier work
[2] = tested on: precise genome editing (PGE); conditions: SCR7 and L755507 added together with RS-1; cited from earlier work

Compound	PGE (HEK293A cells; dsODN donors, from 3.5% without RS-1) [%]	PGE (rabbit embryos) [%]	increase of PGE (hiPSCs; hiPSCs, dsODN donors (Zhang et al., 2017))	PGE (U2OS cells) [%]	effect on PGE efficiency [1]	effect on PGE (HEK293A cells)	stimulation of PGE (hiPSCs; hiPSCs (Zhang et al. 2017))	PGE (hiPSCs; hiPSCs, ssODN, from 0.35% without L755507 (Yu et al. 2015)) [%]	PGE (mouse ESCs) [%]	effect on PGE when added together with RS-1, compared to RS-1 alone [2]
O=C(Nc1ccc(Br)cc1)c1ccc(Br)c(S(=O)(=O)NCc2ccccc2)c1 [RS-1]	21	26.1	not	2.4	No effect					
CCCCCCNC(=O)Nc1ccc(S(=O)(=O)Nc2ccc(CCNC[C@H](O)COc3ccc(O)cc3)cc2)cc1 [L755507]						did not find significant stimulation	did not find significant stimulation	3.13	33.3	no additive effect
